Data on 28 compounds can be found in US20260297070A1, “CYCLIC [COMPOUND LEFT OUT] WRN INHIBITORS” (Nimbus Wadjet, Inc., priority 2023, published 2026).

The target in the experiment is T1, human Werner helicase (WRN-BV08, Uniprot Q14191, amino acids 517-1235 with L1074F point mutation) (Homo sapiens, UniProt Q14191, L1074F).
T1 construct: Uniprot Q14191, amino acids 517-1235 with L1074F point mutation; TEV-cleavable 8×His (C, cleaved yes); made in house; host or cells: Sf9 insect cells (baculovirus)
Description: WRN (BV08) ADP-Glo Assay. Type of experiment: biochemical. Particulars: 0.15 nM WRN, 5 μM ATP, 0.1 nM DNA duplex, 15 min preincubation, 60 min at 25° C., pH 7.5, 1% DMSO; read-out: ADP-Glo_hWRN_IC50. In short, it runs like this: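 Untagged WRN (Sf9-expressed, TEV-cleaved) at 0.15 nM was preincubated 15 min at 25 °C with compound, then reacted 60 min at 25 °C with 5 μM ATP and 0.1 nM DNA duplex in Bicine pH 7.5, 1 mM MgCl2. ADP-Glo luminescence gave % inhibition; IC50 by four-parameter fit.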

T1 sequence (Q14191 with tags, fused parts or gaps L1074F limits assumed): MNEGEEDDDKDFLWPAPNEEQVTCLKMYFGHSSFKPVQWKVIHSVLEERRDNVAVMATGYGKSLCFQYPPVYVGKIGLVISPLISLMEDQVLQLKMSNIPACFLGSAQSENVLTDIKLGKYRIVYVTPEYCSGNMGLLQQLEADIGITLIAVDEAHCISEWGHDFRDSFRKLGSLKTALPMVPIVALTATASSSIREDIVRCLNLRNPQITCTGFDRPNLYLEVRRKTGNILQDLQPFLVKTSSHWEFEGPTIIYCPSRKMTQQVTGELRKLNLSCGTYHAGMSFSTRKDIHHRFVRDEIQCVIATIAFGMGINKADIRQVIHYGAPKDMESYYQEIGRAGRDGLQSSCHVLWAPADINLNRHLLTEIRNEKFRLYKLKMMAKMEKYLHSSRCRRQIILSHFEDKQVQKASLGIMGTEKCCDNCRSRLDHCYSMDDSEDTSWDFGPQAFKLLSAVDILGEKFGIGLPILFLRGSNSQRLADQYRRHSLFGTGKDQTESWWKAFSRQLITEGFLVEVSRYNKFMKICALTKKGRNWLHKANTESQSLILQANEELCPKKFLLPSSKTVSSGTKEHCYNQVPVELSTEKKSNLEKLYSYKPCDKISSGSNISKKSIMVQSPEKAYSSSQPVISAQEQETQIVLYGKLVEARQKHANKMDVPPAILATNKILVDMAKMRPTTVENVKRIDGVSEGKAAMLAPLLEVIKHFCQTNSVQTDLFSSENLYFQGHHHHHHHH

In the case of `COc1cc(CN(C(=O)Cc2ccc(-n3cccc3C)cc2F)C2C=CS(=O)(=O)C2)ccn1` (stereo not shown) [I-69, N-(1,1-dioxo-2,3-dihydro-1lambda6-thiophen-3-yl)-2-[2-fluoro-4-(2-methyl-1H-pyrrol-1-yl)phenyl]-N-[(2-methoxypyridin-4-yl)methyl]acetamide], the IC50 is less than 0.5 µM. The value for `O=C([C@H]1[C@@H]2CC(F)(F)C[C@@H]21)N(Cc1ccncc1)C1C=CS(=O)(=O)C1` (stereo partly drawn) [I-617, (1R,5S,6R)-N-(1,1-dioxo-2,3-dihydro-1lambda6-thiophen-3-yl)-3,3-difluoro-N-[(pyridin-4-yl)methyl]bicyclo[3.1.0]hexane-6-carboxamide] was more than 50 µM; that for `O=C(CCCC[C@@H]1SC[C@@H]2NC(=O)N[C@@H]21)NCCOCCOCCOCCOCCC(=O)Nc1ccc(Cn2cc(CCCC(=O)N3CCN(C(=O)c4ccc(CN(C(=O)Cc5ccc(-n6cccc6)cc5F)C5C=CS(=O)(=O)C5)cc4)CC3)nn2)nc1` (stereo partly drawn) [II-3, 1-{5-[(3aS,4S,6aR)-2-oxo-hexahydro-1H-thieno[3,4-d]imidazol-4-yl]pentanamido}-N-{6-[(4-{4-[4-(4-{[N-(1,1-dioxo-2,3-dihydro-1lambda6-thiophen-3-yl)-2-[2-fluoro-4-(1H-pyrrol-1-yl)phenyl]acetamido]methyl}benzoyl)piperazin-1-yl]-4-oxobutyl}-1H-1,2,3-triazol-1-yl)methyl]pyridin-3-yl}-3,6,9,12-tetraoxapentadecan-15-amide] was 10 to 50 µM. In the case of `COc1cc(CN(C(=O)Cc2ccc(-c3ccc(F)cc3)cc2)C2C=CS(=O)(=O)C2)ccn1` (stereo not shown) [I-158, N-(1,1-dioxo-2,3-dihydro-1lambda6-thiophen-3-yl)-2-{4′-fluoro-[1,1′-biphenyl]-4-yl}-N-[(2-methoxypyridin-4-yl)methyl]acetamide], the IC50 lay within 0.5 to 5 µM.

For `COc1cc(CN(C(=O)Cc2ccc(-c3ccc(F)c(F)c3)cc2F)C2C=CS(=O)(=O)C2)ccn1` (single isomer, unassigned) [I-400], the IC50 is more than 50 µM. Turning to `CC(C)(O)c1cc(CN(C(=O)Cc2ccc(-n3cccc3)cc2)C2C=CS(=O)(=O)C2)ccn1` (stereo not shown) [I-152, N-(1,1-dioxo-2,3-dihydro-1lambda6-thiophen-3-yl)-N-{[2-(2-hydroxypropan-2-yl)pyridin-4-yl]methyl}-2-[4-(1H-pyrrol-1-yl)phenyl]acetamide], the IC50 is 0.5 to 5 µM. The value for `CC(C(=O)N(Cc1ccnc(C(C)(C)O)c1)C1C=CS(=O)(=O)C1)n1cc(-c2cc(F)c(F)c(F)c2)cn1` (single isomer, unassigned) [I-776, (2R*)-N-[(3R**)-1,1-dioxo-2,3-dihydro-1lambda6-thiophen-3-yl]-N-{[2-(2-hydroxypropan-2-yl)pyridin-4-yl]methyl}-2-[4-(3,4,5-trifluorophenyl)-1H-pyrazol-1-yl]propanamide] was less than 0.5 µM. Then `O=C(Cc1ccc(S(F)(F)(F)(F)F)cc1)N(Cc1nc(C2CC2)cs1)C1C=CS(=O)(=O)C1` (single isomer, unassigned) [I-4], with less than 0.5 µM; and `O=C(Cc1ccc(-n2cccc2)cc1)N(Cc1cccc(B(O)O)c1)C1C=CS(=O)(=O)C1` (stereo not shown) [I-314, (3-{[N-(1,1-dioxo-2,3-dihydro-1lambda6-thiophen-3-yl)-2-[4-(1H-pyrrol-1-yl)phenyl]acetamido]methyl}phenyl)boronic acid], with 10 to 50 µM; and `CC(C)(O)c1cc(CN(C(=O)Cc2ccc(C(F)(F)F)cc2F)C2C=CS(=O)(=O)C2)ccn1` (stereo not shown) [I-128, N-(1,1-dioxo-2,3-dihydro-1lambda6-thiophen-3-yl)-2-[2-fluoro-4-(trifluoromethyl)phenyl]-N-{[2-(2-hydroxypropan-2-yl)pyridin-4-yl]methyl}acetamide], with 0.5 to 5 µM.

For `COc1cc(CN(C(=O)C(OC)c2ccc(-c3ccc(F)cc3)cc2F)C2C=CS(=O)(=O)C2)ccn1` (single isomer, unassigned) [I-366, (2R*)-2-{3,4′-difluoro-[1,1′-biphenyl]-4-yl}-N-[(3R**)-1,1-dioxo-2,3-dihydro-1lambda6-thiophen-3-yl]-2-methoxy-N-[(2-methoxypyridin-4-yl)methyl]acetamide], the IC50 is more than 50 µM. Then `CC(C)(O)c1cc(CN(C(=O)C(c2ccc(-c3ccc(F)c(F)c3)cc2F)n2cccn2)C2C=CS(=O)(=O)C2)ccn1` (single isomer, unassigned) [I-669, (2R*)-N-[(3R**)-1,1-dioxo-2,3-dihydro-1lambda6-thiophen-3-yl]-N-{[2-(2-hydroxypropan-2-yl)pyridin-4-yl]methyl}-2-(1H-pyrazol-1-yl)-2-{3,3′,4′-trifluoro-[1,1′-biphenyl]-4-yl}acetamide], with less than 0.5 µM. The value for `CC(C)(C)OC(=O)NC(C(=O)N(Cc1ccccc1)C1C=CS(=O)(=O)C1)c1ccc(-n2cccc2)cc1` (stereo not shown) [I-535, tert-butyl N-{[benzyl(1,1-dioxo-2,3-dihydro-1lambda6-thiophen-3-yl)carbamoyl][4-(1H-pyrrol-1-yl)phenyl]methyl}carbamate] was more than 50 µM. Then `Cc1cccn1-c1ccc(CC(=O)N(Cc2ccnc3c2CCC3O)C2C=CS(=O)(=O)C2)c(F)c1` (stereo not shown) [I-103, N-(1,1-dioxido-2,3-dihydrothiophen-3-yl)-2-(2-fluoro-4-(2-methyl-1H-pyrrol-1-yl)phenyl)-N-((7-hydroxy-6,7-dihydro-5H-cyclopenta[b]pyridin-4-yl)methyl)acetamide], with 0.5 to 5 µM.

For `COc1cc(CN(C(=O)Cc2ccc(C(F)(F)F)cc2)C2C=CS(=O)(=O)C2)ccn1` (single isomer, unassigned) [I-57], the IC50 is less than 0.5 µM. The value for `CC(C)(O)c1cc(CN(C(=O)CCc2ccc(S(F)(F)(F)(F)F)cc2)C2C=CS(=O)(=O)C2)ccn1` (single isomer, unassigned) [I-674] was 5 to 10 µM. In the case of `CN(C)C(=O)C(C(=O)N(Cc1ccnc(C(C)(C)O)c1)C1C=CS(=O)(=O)C1)c1ccc(-c2ccc(F)cc2)cc1` (single isomer, unassigned) [I-264, (2R**)-N-[(3R*)-1,1-dioxo-2,3-dihydro-1lambda6-thiophen-3-yl]-2-{4′-fluoro-[1,1′-biphenyl]-4-yl}-N-{[2-(2-hydroxypropan-2-yl)pyridin-4-yl]methyl}-N′,N′-dimethylpropanediamide], the IC50 lay within 5 to 10 µM. Then `O=C(Cc1ccc(S(F)(F)(F)(F)F)cc1)N(Cc1nc(C2CC2)cs1)C1C=CS(=O)(=O)C1` (single isomer, unassigned) [I-253], with 10 to 50 µM; and `O=C(Cn1cc(-c2ccccc2)cn1)N(Cc1ccncc1)C1C=CS(=O)(=O)C1` (single isomer, unassigned) [I-133], with 0.5 to 5 µM; and `O=C(Cc1ccc(-n2cccc2)cc1)N(Cc1ccnc2ccccc12)C1C=CS(=O)(=O)C1` (stereo not shown) [I-170, N-(1,1-dioxo-2,3-dihydro-1lambda6-thiophen-3-yl)-2-[4-(1H-pyrrol-1-yl)phenyl]-N-[(quinolin-4-yl)methyl]acetamide], with 0.5 to 5 µM. For the compound `O=C(C(c1ccc(-c2ccc(F)cc2)cc1)C1CC1)N(Cc1ccncc1)C1C=CS(=O)(=O)C1` (stereo not shown) [I-677, 2-cyclopropyl-N-(1,1-dioxo-2,3-dihydro-1lambda6-thiophen-3-yl)-2-{4′-fluoro-[1,1′-biphenyl]-4-yl}-N-[(pyridin-4-yl)methyl]acetamide], the IC50 is 10 to 50 µM. The value for `O=C(Cc1ncc(-c2ccccc2)s1)N(Cc1ccncc1)C1C=CS(=O)(=O)C1` (stereo not shown) [I-300, N-(1,1-dioxo-2,3-dihydro-1lambda6-thiophen-3-yl)-2-(5-phenyl-1,3-thiazol-2-yl)-N-[(pyridin-4-yl)methyl]acetamide] was 10 to 50 µM; that for `CC(C)(O)c1cc(CN(C(=O)Cc2ccc(S(F)(F)(F)(F)F)cc2)[C@@H]2C=CS(=O)(=O)C2)ccn1` [I-16, (R)—N-(1,1-dioxido-2,3-dihydrothiophen-3-yl)-N-((2-(2-hydroxypropan-2-yl)pyridin-4-yl)methyl)-2-(4-(pentafluoro-λ^6-sulfaneyl)phenyl)acetamide] was less than 0.5 µM; that for `CC(C)(O)c1cc(CN(C(=O)Cc2ccc(C(F)(F)F)cc2)C2C=CS(=O)(=O)C2)ccn1` (stereo not shown) [I-135, N-(1,1-dioxo-2,3-dihydro-1lambda6-thiophen-3-yl)-N-{[2-(2-hydroxypropan-2-yl)pyridin-4-yl]methyl}-2-[4-(trifluoromethyl)phenyl]acetamide] was 0.5 to 5 µM. The value for `CN(C)C(=O)C(C(=O)N(Cc1ccnc(C(C)(C)O)c1)C1C=CS(=O)(=O)C1)c1ccc(S(F)(F)(F)(F)F)cc1` (stereo not shown) [I-192, N′-(1,1-dioxo-2,3-dihydro-1lambda6-thiophen-3-yl)-N′-{[2-(2-hydroxypropan-2-yl)pyridin-4-yl]methyl}-N,N-dimethyl-2-[4-(pentafluoro-lambda6-sulfanyl)phenyl]propanediamide] was 0.5 to 5 µM.

`Cn1cc(CN(C(=O)Cc2ccc(-n3cccc3)cc2)C2C=CS(=O)(=O)C2)cn1` (stereo not shown) [I-481, N-(1,1-dioxo-2,3-dihydro-1lambda6-thiophen-3-yl)-N-[(1-methyl-1H-pyrazol-4-yl)methyl]-2-[4-(1H-pyrrol-1-yl)phenyl]acetamide]: the IC50 was more than 50 µM.

With `O=C(Cc1ccc(-c2ccc(F)cc2C(F)F)cc1)N(Cc1ccncc1)C1C=CS(=O)(=O)C1` (stereo not shown) [I-334, 2-[2′-(difluoromethyl)-4′-fluoro-[1,1′-biphenyl]-4-yl]-N-(1,1-dioxo-2,3-dihydro-1lambda6-thiophen-3-yl)-N-[(pyridin-4-yl)methyl]acetamide], the IC50 lay in the range of 10 to 50 µM. Then `O=C(Cn1cc(-c2ccccc2)cn1)N(Cc1ccncc1)C1C=CS(=O)(=O)C1` (stereo not shown) [I-186, N-(1,1-dioxo-2,3-dihydro-1lambda6-thiophen-3-yl)-2-(4-phenyl-1H-pyrazol-1-yl)-N-[(pyridin-4-yl)methyl]acetamide], with 0.5 to 5 µM.
